# Results from PMC6979384, “Characterization of the plant homeodomain (PHD) reader family for their histone tail interactions” (Epigenetics & Chromatin, 2020).
# Where no end group is shown, it is not given here. [ ]: non-standard residue; d: D form. Arg(Me2a) = CN(C)C(=N)NCCC[C@H](N)C(=O)O; pS = N[C@@H](COP(=O)(O)O)C(=O)O
# Legend:
# Assay in all cases: Histone peptide microarray
# Format in all cases: binding, human
# [1] = tested on: AIRE (PP); details: AIRE (PP), GST-tagged; arrays performed twice, n of 4
# From the text: (§1) To more comprehensively define the histone interactions of the 31 PHD readers identified from the domain microarray analyses, we probed each on an alternate microarray platform containing a library of 293 synthetic histone peptides with single or combinatorial PTMs (Additional file 2: Figure S4 and Additional file 3: Table S2).
# (§2) The 31 GST-tagged PHD readers identified in the PHD finger domain array were expressed and purified as previously. Histone peptide arrays and peptide pulldown assays were conducted as recently described (specifically, the optimized protocol from Petell et al. for the former).
# (§3) Supplementary file 13072_2020_328_MOESM3_ESM.xlsx: Additional file 3: Table S2. […] Excel Tab Peptide List is a compiled list of the entire 293 histone peptide library with amino acid sequence ranges. […] Each number corresponds to the peptide number designated in Peptide List. Excel Tab Average Signals is a compiled set of binding data: chromatin reader at 0.5 μM vs. entire 293 peptide library. Data is presented as the average and standard deviation of 4 replicates. The average signals are colored to indicate signal intensity with green being strong and white being weak/low. […] Key: red= stronger relative binding; blue = weaker relative binding. Excel Tab Array info summary is a table summarizing the domains, sequence coverage, array signal range, and noise for each of the GST-tagged readers assayed on the peptide microarrays.
# [2] = tested on: BAZ2B; details: BAZ2B, GST-tagged; arrays performed twice, n of 4
# From the text: as §1, §2, §3
# [3] = tested on: BPTF (PB); details: BPTF (PB), GST-tagged; arrays performed twice, n of 4
# From the text: as §1, §2, §3
# [4] = tested on: CHD4 (PPCC); details: CHD4 (PPCC), GST-tagged; arrays performed twice, n of 4
# From the text: as §1, §2, §3
# [5] = tested on: CHD5 (PCC); details: CHD5 (PCC), GST-tagged; arrays performed twice, n of 4
# From the text: as §1, §2, §3
# [6] = tested on: CHD5 (PPCC); details: CHD5 (PPCC), GST-tagged; arrays performed twice, n of 4
# From the text: as §1, §2, §3
# [7] = tested on: DIDO1; details: DIDO1, GST-tagged; arrays performed twice, n of 4
# From the text: as §1, §2, §3
# [8] = tested on: DPF2 (PPC2W2); details: DPF2 (PPC2W2), GST-tagged; arrays performed twice, n of 4
# From the text: as §1, §2, §3
# [9] = tested on: ING1; details: ING1, GST-tagged; arrays performed twice, n of 4
# From the text: as §1, §2, §3
# [10] = tested on: ING2; details: ING2, GST-tagged; arrays performed twice, n of 4
# From the text: as §1, §2, §3
# [11] = tested on: ING3; details: ING3, GST-tagged; arrays performed twice, n of 4
# From the text: as §1, §2, §3
# [12] = tested on: ING4; details: ING4, GST-tagged; arrays performed twice, n of 4
# From the text: as §1, §2, §3
# [13] = tested on: ING5; details: ING5, GST-tagged; arrays performed twice, n of 4
# From the text: as §1, §2, §3
# [14] = tested on: KDM4C (TTP); details: KDM4C (TTP), GST-tagged; arrays performed twice, n of 4
# From the text: as §1, §2, §3
# [15] = tested on: KDM5A (1); details: KDM5A (1), GST-tagged; arrays performed twice, n of 4
# From the text: as §1, §2, §3
# [16] = tested on: KDM5A (3); details: KDM5A (3), GST-tagged; arrays performed twice, n of 4
# From the text: as §1, §2, §3
# [17] = tested on: KDM5B (1); details: KDM5B (1), GST-tagged; arrays performed twice, n of 4
# From the text: as §1, §2, §3
# [18] = tested on: KDM5B (3); details: KDM5B (3), GST-tagged; arrays performed twice, n of 4
# From the text: as §1, §2, §3
# [19] = tested on: KDM7A; details: KDM7A, GST-tagged; arrays performed twice, n of 4
# From the text: as §1, §2, §3
# [20] = tested on: MLL5; details: MLL5, GST-tagged; arrays performed twice, n of 4
# From the text: as §1, §2, §3
# [21] = tested on: MORC3 (CW); details: MORC3 (CW), GST-tagged; arrays performed twice, n of 4
# From the text: as §1, §2, §3
# [22] = tested on: PHF13; details: PHF13, GST-tagged; arrays performed twice, n of 4
# From the text: as §1, §2, §3
# [23] = tested on: PHF21A; details: PHF21A, GST-tagged; arrays performed twice, n of 4
# From the text: as §1, §2, §3
# [24] = tested on: PHF23; details: PHF23, GST-tagged; arrays performed twice, n of 4
# From the text: as §1, §2, §3
# [25] = tested on: PHF2; details: PHF2, GST-tagged; arrays performed twice, n of 4
# From the text: as §1, §2, §3
# [26] = tested on: PHF8; details: PHF8, GST-tagged; arrays performed twice, n of 4
# From the text: as §1, §2, §3
# [27] = tested on: PHRF1 (RP); details: PHRF1 (RP), GST-tagged; arrays performed twice, n of 4
# From the text: as §1, §2, §3
# [28] = tested on: RAG2; details: RAG2, GST-tagged; arrays performed twice, n of 4
# From the text: as §1, §2, §3
# [29] = tested on: SP140L; details: SP140L, GST-tagged; arrays performed twice, n of 4
# From the text: as §1, §2, §3
# [30] = tested on: TAF3; details: TAF3, GST-tagged; arrays performed twice, n of 4
# From the text: as §1, §2, §3
# [31] = tested on: TRIM66 (PB); details: TRIM66 (PB), GST-tagged; arrays performed twice, n of 4
# From the text: as §1, §2, §3
Substance,Array Heatmap value (peptide array binding signal) [1],Array Heatmap value (peptide array binding signal) [2],Array Heatmap value (peptide array binding signal) [3],Array Heatmap value (peptide array binding signal) [4],Array Heatmap value (peptide array binding signal) [5],Array Heatmap value (peptide array binding signal) [6],Array Heatmap value (peptide array binding signal) [7],Array Heatmap value (peptide array binding signal) [8],Array Heatmap value (peptide array binding signal) [9],Array Heatmap value (peptide array binding signal) [10],Array Heatmap value (peptide array binding signal) [11],Array Heatmap value (peptide array binding signal) [12],Array Heatmap value (peptide array binding signal) [13],Array Heatmap value (peptide array binding signal) [14],Array Heatmap value (peptide array binding signal) [15],Array Heatmap value (peptide array binding signal) [16],Array Heatmap value (peptide array binding signal) [17],Array Heatmap value (peptide array binding signal) [18],Array Heatmap value (peptide array binding signal) [19],Array Heatmap value (peptide array binding signal) [20],also measured
"H2AS1p + R3me2a + K5ac: H2A 1-17 ([pS]G[Arg(Me2a)]GK(Ac)QGGKARAKAKTR; UniProt P0C0S8 2-18, looked up, fragment)",0.4865,0.5108,0.3885,0.5877,0.8457,0.6207,0.7538,0.758,0.5672,0.6108,0.5376,0.4949,0.4136,0.5547,0.5224,0.5245,0.7084,0.5099,0.4163,0.5765,Array Heatmap value (peptide array binding signal) [21]: 0.4152; Array Heatmap value (peptide array binding signal) [22]: 0.6406; Array Heatmap value (peptide array binding signal) [23]: 0.4866; Array Heatmap value (peptide array binding signal) [24]: 0.5991; Array Heatmap value (peptide array binding signal) [25]: 0.5212; Array Heatmap value (peptide array binding signal) [26]: 0.3894; Array Heatmap value (peptide array binding signal) [27]: 0.5154; Array Heatmap value (peptide array binding signal) [28]: 0.2825; Array Heatmap value (peptide array binding signal) [29]: 0.3795; Array Heatmap value (peptide array binding signal) [30]: 0.2891; Array Heatmap value (peptide array binding signal) [31]: 0.6131
"H2AX (132-142): H2AX 132-142 (GKKATQASQEY; UniProt P16104 133-143, looked up, fragment)",0.4547,0.4423,0.3256,0.5518,0.733,0.5152,0.7308,0.6502,0.536,0.621,0.4477,0.4334,0.3322,0.4463,0.4587,0.478,0.6162,0.4637,0.3262,0.533,Array Heatmap value (peptide array binding signal) [21]: 0.4162; Array Heatmap value (peptide array binding signal) [22]: 0.5577; Array Heatmap value (peptide array binding signal) [23]: 0.4468; Array Heatmap value (peptide array binding signal) [24]: 0.5369; Array Heatmap value (peptide array binding signal) [25]: 0.5225; Array Heatmap value (peptide array binding signal) [26]: 0.3348; Array Heatmap value (peptide array binding signal) [27]: 0.3943; Array Heatmap value (peptide array binding signal) [28]: 0.2674; Array Heatmap value (peptide array binding signal) [29]: 0.3692; Array Heatmap value (peptide array binding signal) [30]: 0.2878; Array Heatmap value (peptide array binding signal) [31]: 0.5363
